Source: patent publication US9452994B2, “Manufacturing process for pyrimidine derivatives” (Novartis AG, priority 2010, dated 2016)

Test: moisture uptake of solid forms at given relative humidity
Type: physicochemical

Cl.Nc1cc(C(F)(F)F)c(-c2cc(N3CCOCC3)nc(N3CCOCC3)n2)cn1.O [5-(2,6-Di-4-morpholinyl-4-pyrimidinyl)-4-(trifluoromethyl)pyridin-2-amine monohydrate monohydrochloride]
moisture uptake (75% relative humidity): 4.4% | moisture uptake (95% relative humidity): 4.9%

5-(2,6-Di-4-morpholinyl-4-pyrimidinyl)-4-trifluoromethylpyridin-2-amine hemihydrate
moisture uptake (25% relative humidity): 1.9%

Cl.Nc1cc(C(F)(F)F)c(-c2cc(N3CCOCC3)nc(N3CCOCC3)n2)cn1 [5-(2,6-Di-4-morpholinyl-4-pyrimidinyl)-4-(trifluoromethyl)pyridin-2-amine monohydrochloride]
hygroscopicity (in words): only slightly hydroscopic | maximum moisture uptake (25° C., up to 92% relative humidity): less than 0.1%

Nc1cc(C(F)(F)F)c(-c2cc(N3CCOCC3)nc(N3CCOCC3)n2)cn1 [5-(2,6-Di-4-morpholinyl-4-pyrimidinyl)-4-trifluoromethylpyridin-2-amine]
moisture uptake (85% relative humidity): 8.9%
